Results on 17 compounds are retold here after patent US5712417A, “Inhibitors of retroviral proteases” (Abbott Laboratories, priority 1989, dated 1998).

pIC50: −log10 of the molar value. Counter-ions that a name gives are not always drawn.

The target of the first assay is T1, HIV protease (Human immunodeficiency virus type 1 group M subtype B, UniProt P04585).
T1 construct: HIV protease consists of 99 amino acids and is evidently split off by itself from the pol polyprotein
The assay can be described thus: Inhibition of HIV protease (cleavage of H-Ser-Phe-Asn-Phe-Opr-Gln-Ile-OH, HPLC). The class given is biochemical. The conditions noted are these: inhibitor concentration at which the cleavage rate is halved; pH 6, 2 hours; read-out: IC50. From the text:
The compounds of the formula (I) according to the invention have enzyme-inhibiting properties. In particular, they inhibit the action of retroviral aspartyl proteases, such as that of HIV protease. Their enzyme-inhibitory action, which is in the milli- to subnanomolar range, can be determined as follows.
The heptapeptide: H-Ser-Phe-Asn-Phe-Pro-Gln-Ile-OH (P. L. Darke et al., Biophys. Res. Commun. 156 (1988) 297-303), inter alia, has hitherto been used as the substrate of HIV protease. HIV protease cleaves the substrate here between the second Phe and Pro.
General instructions for testing inhibitors of HIV proteases: a) Preparation of the substrate solution:
2 mg of H-Ser-Phe-Asn-Phe-Opr-Gln-Ile-OH (H-Opr-OH=5-oxaproline) are dissolved in 1 ml of MGTE15 buffer (use of ultrasound if necessary) and the solution is then filtered over a sterile filter (0.45 μm). […]
b) Preparation of the inhibitor solution:
2.5 times the desired molarity of the inhibitor per ml of solution are weighed out and dissolved in DMSO (10% of the final volume). The solution is diluted to the final volume with MGTE15 buffer and filtered over a sterile filter (0.45 μm). […]
c) Preparation of the protease solution:
5 μl of the HIV protease solution are diluted with MGTE25 buffer as required.
10 μl portions of the substrate solution are pipetted into test-tubes (16×100) with a screw cap. For the blank experiment, 10 μl of MGTE15 buffer containing 10% of DMSO are pipetted into a test-tube. 10 μl portions of the inhibitor solutions are added to the other test-tubes. The mixtures are incubated at 37° C. for 5-10 minutes and 5 μl of the protease solution are then added to each sample, After reaction at 35° C. for 2 hours, 10 or 20 μl (depending on the sensitivity of the HPLC apparatus) of each sample are then pipetted off, introduced into microvials and diluted with 120 μl of the HPLC mobile phase. […]
e) Conditions for the HPLC analysis:
20% (weight/weight) of aceto-
Column: Merck ®LICHROSORB RP18 (5 μm) 250×4
Column temperature: 42° C.
Detector parameters: 215 nm, 0.08 AUF, 18.2° C.
Analysis time: 11 minutes
Retention time of the substrate: 8.1 minutes
Retention time of the N-terminal tetrapeptide: 3.9 minutes
20 mM morpholinoethanesulfonic acid (MES)
15% (weight/volume) of glycerol
0.1% (volume/volume) of Triton ×100
1 mM phenylmethylsulfonyl fluoride (PMSF)
25% (weight/volume) of glycerol, additionally 1 mM dithiothreitol (DTT) The MES, EDTA, NaCl, DTT and PMSF are weighed into a conical flask and dissolved in a little water and the pH is brought to 6. The corresponding amount of glycerol is weighed into a measuring flask and ®Triton ×100 is pipetted in. The aqueous solution is transferred to the measuring flask and made up to the mark with water.
A 0.1M solution is prepared from orthophosphoric acid (FLUKA extra pure analytical grade). This solution is brought to exactly pH 2.5 with triethylamine (FLUKA extra pure analytical grade). The weight of the solution is determined and the corresponding amount of acetonitrile (fume cupboard) is weighed in. The mixture is mixed thoroughly and degassed with helium 5.0 for about 5 minutes.
Under the conditions chosen here, heptapeptides are separated from the N-terminal tetrapeptide formed during enzymatic cleavage. The percentage content of the tetrapeptide peak in respect of the sum of tetrapeptide+heptapeptide corresponds to the cleaving rate. The following IC50 values indicate the inhibitor concentration at which the cleavage rate is halved.
Consider `Cc1ccc(S(=O)(=O)N[C@@H](Cc2ccc3ccccc3c2)C(=O)N[C@H](C(=O)N[C@@H](Cc2ccccc2)[C@@H](O)[C@H](O)[C@H](Cc2ccccc2)NC(=O)[C@@H](NC(=O)[C@H](Cc2ccc3ccccc3c2)NS(=O)(=O)c2ccc(C)cc2)C(C)C)C(C)C)cc1` [Example 124, N,N'-bis-<N-Tosyl-β-naphthylalanyl-L-valyl>-2S, 5S-diamino-1,6-diphenylhexane-3R, 4R-diol], for which the pIC50 (in general, −log10 of the IC50, conventionally taken in molar units) was 7.96.

As to `CC(C)[C@H](NC(=O)[C@H](Cc1c[nH]c2ccccc12)NC(=O)OCc1ccccc1)C(=O)N[C@@H](Cc1ccccc1)[C@@H](O)[C@H](O)[C@H](Cc1ccccc1)NC(=O)[C@@H](NC(=O)[C@H](Cc1c[nH]c2ccccc12)NC(=O)OCc1ccccc1)C(C)C` [Example 117, N,N'-bis-<Benzyloxycarbonyl-L-tryptophyl-L-valyl>-2S,5S-diamino-1,6-diphenylhexane-3R,4R-diol], the pIC50 was 7.72.

On to `CC(C)[C@H](NC(=O)OC(C)(C)C)C(=O)N[C@H](Cc1ccccc1)[C@@H](O)[C@H](O)[C@@H](Cc1ccccc1)NC(=O)[C@@H](NC(=O)OC(C)(C)C)C(C)C` [Example 127, N,N'-bis-<tert.-Butoxycarbonyl-L-valyl>-2R,5R-diamino-1,6-diphenylhexane-3R,4R-diol], for which the pIC50 was 7.34.

On to `CC[C@H](C)[C@H](NC(=O)[C@H](Cc1cccc2ccccc12)CS(=O)(=O)C(C)(C)C)C(=O)N[C@@H](Cc1ccccc1)[C@@H](O)[C@H](O)[C@H](Cc1ccccc1)NC(=O)[C@@H](NC(=O)[C@H](Cc1cccc2ccccc12)CS(=O)(=O)C(C)(C)C)[C@@H](C)CC` [Example 156, N,N'-bis-(<2S-(1,1-Dimethylethylsulfonylmethyl)-3-(1-naphthyl)-propionyl>-L-isoleucyl)-2S,5S-diamino-1,6-diphenylhexane-3R,4R-diol], for which the pIC50 was 7.52.

Regarding `CC(C)[C@H](NC(=O)[C@H](CCC(=O)OCc1ccccc1)NC(=O)OC(C)(C)C)C(=O)N[C@@H](Cc1ccccc1)[C@H](O)[C@@H](O)[C@H](Cc1ccccc1)NC(=O)[C@@H](NC(=O)[C@H](CCC(=O)OCc1ccccc1)NC(=O)OC(C)(C)C)C(C)C` [Example 84, N,N,-bis-<(N-tert.-Butoxycarbonyl-O-benzyl-L-glutamyl)-L-valyl>-2S,5S-diamino-1,6-diphenylhexane-3S,4S-diol], the pIC50 was 6.96.

Turning to `CC(C)[C@H](NC(=O)[C@H](CCCCNC(=O)OCc1ccccc1)NC(=O)OC(C)(C)C)C(=O)N[C@@H](Cc1ccccc1)[C@@H](O)[C@H](O)[C@H](Cc1ccccc1)NC(=O)[C@@H](NC(=O)[C@H](CCCCNC(=O)OCc1ccccc1)NC(=O)OC(C)(C)C)C(C)C` [Example 80], the pIC50 is 7.55.

For `CC(C)[C@H](NC(=O)[C@@H](N)CCCCN)C(=O)N[C@@H](Cc1ccccc1)[C@@H](O)[C@H](O)[C@H](Cc1ccccc1)NC(=O)[C@@H](NC(=O)[C@@H](N)CCCCN)C(C)C` [Example 10, N,N'-bis-(L-lysyl-L-valyl)-2S,5S-diamino-1,6-diphenylhexane-3R,4R-diol tetrahydrochloride], the pIC50 is 7.77.

For the compound `CC(C)[C@H](NC(=O)[C@@H](N)Cc1ccccc1)C(=O)NC[C@@H](O)[C@H](O)CNC(=O)[C@@H](NC(=O)[C@@H](N)Cc1ccccc1)C(C)C` [Example 113, N,N,-bis-<L-phenylalanyl-L-valyl>-1,4-diaminobutane-2R,3R-diol dihydrochloride], the pIC50 is 7.40.

Take `N[C@@H](Cc1ccccc1)C(=O)N[C@H](C(=O)N[C@@H](Cc1ccccc1)[C@@H](O)[C@H](O)[C@H](Cc1ccccc1)NC(=O)[C@@H](NC(=O)[C@@H](N)Cc1ccccc1)C1CCCCC1)C1CCCCC1` [Example 72, N,N'-bis-<L-Phenylalanyl-L-cyclohexylglycyl>-2S,5S-diamino-1,6-diphenylhexane-3R,4R-diol dihydrochloride]: the pIC50 is 7.52.

`CC(C)[C@H](NC(=O)[C@@H](CC(=O)N1CCC(NC(=O)OC(C)(C)C)CC1)Cc1ccccc1)C(=O)N[C@@H](Cc1ccccc1)[C@@H](O)[C@H](O)[C@H](Cc1ccccc1)NC(=O)[C@@H](NC(=O)[C@@H](CC(=O)N1CCC(NC(=O)OC(C)(C)C)CC1)Cc1ccccc1)C(C)C` [Example 100, N,N'-bis-<2R-Benzyl-3-(4-tert.-butoxycarbonylamino-1-piperidylcarbonyl)-propionyl-n-valyl>-2S,5S-diamino-1,6-diphenylhexane-3R,4R-diol dihydrochloride]: the pIC50 was 6.40.

On to `CC(C)C[C@H](NC(=O)OC(C)(C)C)C(=O)N[C@H](C(=O)N[C@@H](Cc1ccccc1)[C@H](O)[C@@H](O)[C@H](Cc1ccccc1)NC(=O)[C@@H](NC(=O)[C@H](CC(C)C)NC(=O)OC(C)(C)C)C(C)C)C(C)C` [Example 88, N,N'-bis-<tert.-Butoxycarbonyl-L-leucyl-L-valyl>-2S,5S-diamino-1,6-diphenylhexane-3S,4S-diol], for which the pIC50 is 6.00.

On to `CSCC[C@H](N)C(=O)N[C@H](C(=O)N[C@@H](Cc1ccccc1)[C@H](O)[C@@H](O)[C@H](Cc1ccccc1)NC(=O)[C@@H](NC(=O)[C@@H](N)CCSC)C(C)C)C(C)C` [Example 74, N,N'-bis-<L-Methionyl-L-valyl>-2S,5S-diamino-1,6-diphenylhexane-3S,4S-dioldihydrochloride], for which the pIC50 is 8.77.

Take `CC(C)C[C@H](NC(=O)[C@@H](NC(=O)[C@@H](N)Cc1ccccc1)C(C)C)C(O)C(O)[C@H](CC(C)C)NC(=O)[C@@H](NC(=O)[C@@H](N)Cc1ccccc1)C(C)C` (stereo partly drawn) [Example 55, N,N'-bis-(L-Phenylalanyl-L-valyl)-4S,7S-diamino-2,9-dimethyldecane-5,6-dioldihydrochloride]: the pIC50 was 8.89.

Consider `CC(C)[C@H](NC(=O)[C@H](Cc1cccc2ccccc12)CS(=O)(=O)C(C)(C)C)C(=O)NCCCCNC(=O)[C@@H](NC(=O)[C@H](Cc1cccc2ccccc12)CS(=O)(=O)C(C)(C)C)C(C)C` [Example 146, N,N'-bis-<(2S-(1,1-Dimethylethylsulfonylmethyl)-3-(1-naphthyl)-propionyl)-L-valyl>-1,4-diaminobutane], for which the pIC50 is 7.00.

Still in this assay, the particulars now being: inhibitor concentration at which the cleavage rate is halved; unit as printed for Ex. 13; read-out: IC50.
For `CC(C)[C@H](NC(=O)[C@H](Cc1cccc2ccccc12)CS(=O)(=O)C(C)(C)C)C(=O)N[C@@H](Cc1ccccc1)[C@@H](O)[C@H](O)[C@H](Cc1ccccc1)NC(=O)[C@@H](NC(=O)[C@H](Cc1cccc2ccccc12)CS(=O)(=O)C(C)(C)C)C(C)C` [Example 13, N,N'-bis-<(2S-(1,1-Dimethylethylsulfonylmethyl)-3-(1-naphthyl)-propionyl)-L-valyl>-2S,5S-diamino-1,6-diphenylhexane-3R,4R-diol], the pIC50 is 8.89.

Staying with this assay, now noted: pH 6; read-out: IC50.
Turning to `CC(C)[C@H](NC(=O)[C@H](Cc1ccccc1)NC(=O)[C@H]1CC[C@@H](N)CC1)C(=O)N[C@@H](Cc1ccccc1)[C@H](O)[C@@H](O)[C@H](Cc1ccccc1)NC(=O)[C@@H](NC(=O)[C@H](Cc1ccccc1)NC(=O)[C@H]1CC[C@@H](N)CC1)C(C)C` [Example 49, N,N'-bis-(4Z-Aminocyclohexanecarbonyl-L-phenylalanyl-L-valyl)-2S, 5S-diamino-1,6-diphenyl-3S, 5S-diol dihydrochloride], the pIC50 is 8.92.

Still in this assay, the particulars now being: read-out: IC50.
As to `CC(C)[C@H](NC(=O)[C@@H](N)Cc1ccccc1)C(=O)N[C@@H](Cc1ccccc1)[C@H](O)[C@H](O)[C@H](Cc1ccccc1)NC(=O)[C@@H](NC(=O)[C@@H](N)Cc1ccccc1)C(C)C` [Example 18, N,N'-bis-(L-Phenylalanyl-L-valyl)-2S,5S-diamino-1,6-diphenylhexane-3R,4S-diol dihydrochloride], the pIC50 was 8.92.
